Source: PMC4496498, “Radiosynthesis, In Vivo Biological Evaluation, and Imaging of Brain Lesions with [^123I]-CLINME, a New SPECT Tracer for the Translocator Protein” (Disease Markers, 2015)
“And” between values parts separate entries of the source, which are not always exact repeats. Equal entries are not always repeated. Where two headings read alike, the source gives them in different places.

What was measured:
TPSO [1] = settings: cited from earlier work
TSPO [2] = target: T1, TSPO (Rattus norvegicus, UniProt P16257); parameters: from tissue; method as in PMID 17680643; settings: same animal model; cited from earlier work
TPSO [3] = settings: cited from earlier work; remark: listed apart in the source
[4] = In vivo biodistribution of [^123I]-CLINME; parameters: species or system Sprague-Dawley (SD) rats; settings: for Biodistribution, Adrenals / Biodistribution, Blood / Biodistribution, Heart / Biodistribution, Kidney / Biodistribution, Liver / Biodistribution, Lungs / Biodistribution, Olfactory bulbs / Biodistribution, Spleen / Biodistribution, Thyroid / Biodistribution, Brain: SD male rats, i.v.; for Biodistribution, Brain: remainder of the brain
Description: No carrier added [^123I]-CLINME (0.7 MBq, 10 pmoles) dissolved in 0.9% saline (0.1 mL) was administered to 8–10-week-old male Sprague-Dawley (SD) rats (n = 4–6) via tail vein injection in a volume of 0.1 mL. At 5, 15, and 30 min and 1, 3, and 6 h after injection (p.i.) of the [^123I]-CLINME, the rats were sacrificed by CO2 administration followed by cervical fracture. […] Samples of organs and tissues were weighed and the radioactivity was measured using an automated γ-counter. The percent of injected dose (%ID) was calculated by comparison to a diluted standard solution derived from the initial injected sample. Radioactivity concentrations were expressed as percent of injected dose per gram of wet tissue (% ID/g).

[5] = Metabolite studies (radio-TLC of tissue and plasma extracts); assay type: in vivo, SD rats; settings: rats
Description: Groups of male SD rats were injected with [^123I]-CLINME (7.4 MBq in 0.1 mL of 0.9% saline) and sacrificed at 15, 60, and 180 min p.i. Adrenals, kidney, heart, and brain were quickly excised.
Tissue fractions (200 mg) were treated with acetonitrile (2 mL) and homogenised, and the mixture was centrifuged at 2,000 rpm. The supernatant was removed and the pellet was treated for a second time, as above and the combined supernatants concentrated to 50 μL. Plasma (0.2 mL) separated from blood was extracted with acetonitrile and concentrated. The concentrated extracts were applied onto silica gel C18 plates with a preconcentration zone (Merck, Darmstadt, Germany) and developed with ethyl acetate. The radioactivity distribution was measured using a static radiochromatogram analyser (Berthold Co.).

TSPO [6] = target: T1, TSPO; assay: SPECT imaging of unilateral excitotoxic (AMPA) striatum lesion; assay type: in vivo, SD rats; parameters: from tissue; host or cells: male Sprague-Dawley rats: peripheral organs and brain in vivo; AMPA-lesioned striatum; brain sections; settings: AMPA lesion rat model
Description: Lesioning was performed by stereotaxically injecting 7.5 nmol α-amino-3-hydroxy-5-methylisoxazole-4-propionic acid (AMPA) unilaterally into the striatum. Male SD rats (317 ± 56 g) were anaesthetised with inhaled isoflurane in O2 (5% induction, ~2% maintenance thereafter) and positioned in a stereotaxic frame (Stoelting Co., USA). A 1.5 cm incision was made in the scalp to reveal the skull surface and a burr hole was drilled over the injection site. […] Following the injection, the needle was left in situ for a further 5 min to allow the fluid to disperse. After the needle was withdrawn, the incision was sutured and cleansed. Animals were given a week to recover prior to imaging. Analgesia was provided by subcutaneous administration of 0.05 mg/Kg buprenorphine.
Two hours prior to [^123I]-CLINME administration, thyroid blocking was performed with an intraperitoneal injection of 2 mg/Kg potassium iodide. [^123I]-CLINME (74–148 MBq in 0.1 mL of 0.9% saline, S.A. > 80 GBq/μmol) was injected via the tail vein. […]
SPECT volumes were reconstructed with an Ordered Subset Expectation Maximisation iterative reconstruction algorithm using 3 iterations and 8 subsets. […] At each of the time points p.i., the ratio of the mean activity in the lesion VOI compared to the contralateral control VOI was determined. […]

TSPO [7] = target: T1, TSPO; assay: In vitro autoradiography with [^125I]-CLINME on lesioned brain tissue; assay type: binding, SD rats; parameters: from tissue; host or cells: male Sprague-Dawley rats: peripheral organs and brain in vivo; AMPA-lesioned striatum; brain sections; settings: autoradiography, 16 nM [^125I]-CLINME
TSPO [8] = target: T1, TSPO; settings: competing drug 1 mg/Kg i.v. 5 min prior to tracer, rats, 30 min p.i.
Description: The saturation effect of [^123I]-CLINME uptake was studied in competition experiments by injecting CLINME (1 mg/Kg), 5 min prior to [^123I]-CLINME (0.7 MBq, 10 pmoles in 0.1 mL of 0.9% saline), via the tail vein, to 8–10-week-old male SD rats.
The drugs were dissolved in dimethyl sulfoxide/saline (1 : 5) and injected intravenously 5 min prior to [^123I]-CLINME. Groups of rats (n = 3-4) were sacrificed by CO2 administration followed by cervical fracture 30 min after administration of [^123I]-CLINME and peripheral organs (liver, spleen, lung, heart, kidney, and adrenals), blood, olfactory bulbs, and the remainder of the brain were removed. The radioactivity concentrations were calculated as described previously. Results were analysed by one-way analysis of variance (ANOVA) followed by Tukey's post hoc test for comparing the tissue radioactivity concentrations in the treated animals (n = 3-4) and in the controls (n = 6). The criterion for significance was P < 0.05.

Compound: CCN(CC)C(=O)Cc1c(-c2ccc(I)cc2)nc2ccc(Cl)cn12 [CLINDE]
- selectivity for the TPSO over the CBR (TPSO [1]): 200 fold

Compound: CCN([11CH3])C(=O)Cc1c(-c2ccc(I)cc2)nc2ccc(Cl)cn12 [[^11C]-CLINME]
- ratio lesion versus contralateral striatum, PET (TSPO [2]): 2.14 ± 0.09

Compound: CCC(C)N([11CH3])C(=O)c1cc2ccccc2c(-c2ccccc2Cl)n1 (stereo not drawn) [[^11C]-PK11195]
- ratio lesion versus contralateral striatum, PET (TSPO [2]): 1.62 ± 0.05

Compound: COc1ccc(OCC[18F])c(CN(C(C)=O)c2cc(F)ccc2Oc2ccccc2)c1 [[^18F]FE-DAA1106]
- ratio of uptake olfactory bulbs versus rest of brain (TPSO [3]): 3.5

Compound: CCN(CC)C(=O)Cc1c(-c2ccc([123I])cc2)nc2ccc(Cl)cn12 [[^123I]-CLINDE]
- ratio of uptake olfactory bulbs versus rest of brain (TPSO [3]; at 8 h): 6

Compound: CCN(C)C(=O)Cc1c(-c2ccc([123I])cc2)nc2ccc(Cl)cn12 [[^123I]-CLINME]
- Biodistribution, Adrenals ([4]; 5 min p.i.): 2.89 ± 0.48 %ID/g
- Biodistribution, Blood ([4]; 5 min p.i.): 0.18 ± 0.02 %ID/g
- Biodistribution, Heart ([4]; 5 min p.i.): 3.28 ± 0.30 %ID/g
- Biodistribution, Kidney ([4]; 5 min p.i.): 1.82 ± 0.20 %ID/g
- Biodistribution, Liver ([4]; 5 min p.i.): 0.70 ± 0.10 %ID/g
- Biodistribution, Lungs ([4]; 5 min p.i.): 7.88 ± 0.62 %ID/g
- Biodistribution, Olfactory bulbs ([4]; 5 min p.i.): 0.38 ± 0.03 %ID/g
- Biodistribution, Spleen ([4]; 5 min p.i.): 2.00 ± 0.55 %ID/g
- Biodistribution, Thyroid ([4]; 5 min p.i.): 4.62 ± 2.17 %ID/g
- Biodistribution, Brain ([4]; 5 min p.i.): 0.20 ± 0.02 %ID/g
- Biodistribution, Adrenals ([4]; 15 min p.i.): 4.71 ± 0.26 %ID/g
- Biodistribution, Blood ([4]; 15 min p.i.): 0.09 ± 0.01 %ID/g
- Biodistribution, Heart ([4]; 15 min p.i.): 3.53 ± 0.23 %ID/g
- Biodistribution, Kidney ([4]; 15 min p.i.): 1.75 ± 0.07 %ID/g
- Biodistribution, Liver ([4]; 15 min p.i.): 0.68 ± 0.07 %ID/g
- Biodistribution, Lungs ([4]; 15 min p.i.): 3.53 ± 0.44 %ID/g
- Biodistribution, Olfactory bulbs ([4]; 15 min p.i.): 0.28 ± 0.04 %ID/g
- Biodistribution, Spleen ([4]; 15 min p.i.): 2.65 ± 0.40 %ID/g
- Biodistribution, Thyroid ([4]; 15 min p.i.): 5.62 ± 1.24 %ID/g
- Biodistribution, Brain ([4]; 15 min p.i.): 0.10 ± 0.01 %ID/g
- Biodistribution, Adrenals ([4]; 30 min p.i.): 7.55 ± 1.38 %ID/g
- Biodistribution, Blood ([4]; 30 min p.i.): 0.08 ± 0.01 %ID/g
- Biodistribution, Heart ([4]; 30 min p.i.): 3.32 ± 0.31 %ID/g
- Biodistribution, Kidney ([4]; 30 min p.i.): 1.78 ± 0.18 %ID/g
- Biodistribution, Liver ([4]; 30 min p.i.): 0.51 ± 0.07 %ID/g
- Biodistribution, Lungs ([4]; 30 min p.i.): 2.45 ± 0.30 %ID/g
- Biodistribution, Olfactory bulbs ([4]; 30 min p.i.): 0.34 ± 0.01 %ID/g
- Biodistribution, Spleen ([4]; 30 min p.i.): 2.21 ± 0.15 %ID/g
- Biodistribution, Thyroid ([4]; 30 min p.i.): 7.37 ± 2.14 %ID/g
- Biodistribution, Brain ([4]; 30 min p.i.): 0.08 ± 0.00 %ID/g
- Biodistribution, Adrenals ([4]; 1 hour p.i.): 6.77 ± 0.54 %ID/g
- Biodistribution, Blood ([4]; 1 hour p.i.): 0.06 ± 0.00 %ID/g
- Biodistribution, Kidney ([4]; 1 hour p.i.): 1.16 ± 0.18 %ID/g
- Biodistribution, Liver ([4]; 1 hour p.i.): 0.42 ± 0.07 %ID/g
- Biodistribution, Lungs ([4]; 1 hour p.i.): 1.68 ± 0.10 %ID/g
- Biodistribution, Olfactory bulbs ([4]; 1 hour p.i.): 0.26 ± 0.05 %ID/g
- Biodistribution, Spleen ([4]; 1 hour p.i.): 1.76 ± 0.12 %ID/g
- Biodistribution, Thyroid ([4]; 1 hour p.i.): 6.46 ± 2.26 %ID/g
- Biodistribution, Brain ([4]; 1 hour p.i.): 0.06 ± 0.01 %ID/g
- Biodistribution, Adrenals ([4]; 3 hours p.i.): 6.65 ± 0.56 %ID/g
- Biodistribution, Blood ([4]; 3 hours p.i.): 0.04 ± 0.00 %ID/g
- Biodistribution, Heart ([4]; 3 hours p.i.): 1.28 ± 0.13 %ID/g
- Biodistribution, Kidney ([4]; 3 hours p.i.): 0.70 ± 0.05 %ID/g
- Biodistribution, Liver ([4]; 3 hours p.i.): 0.23 ± 0.01 %ID/g
- Biodistribution, Lungs ([4]; 3 hours p.i.): 0.95 ± 0.12 %ID/g
- Biodistribution, Olfactory bulbs ([4]; 3 hours p.i.): 0.25 ± 0.01 %ID/g
- Biodistribution, Spleen ([4]; 3 hours p.i.): 1.02 ± 0.14 %ID/g
- Biodistribution, Thyroid ([4]; 3 hours p.i.): 3.41 ± 1.10 %ID/g
- Biodistribution, Brain ([4]; 3 hours p.i.): 0.03 ± 0.00 %ID/g
- Biodistribution, Adrenals ([4]; 6 hours p.i.): 8.34 ± 0.71 %ID/g
- Biodistribution, Blood ([4]; 6 hours p.i.): 0.03 ± 0.00 %ID/g
- Biodistribution, Heart ([4]; 6 hours p.i.): 0.72 ± 0.14 %ID/g
- Biodistribution, Kidney ([4]; 6 hours p.i.): 0.51 ± 0.09 %ID/g
- Biodistribution, Liver ([4]; 6 hours p.i.): 0.21 ± 0.05 %ID/g
- Biodistribution, Lungs ([4]; 6 hours p.i.): 0.68 ± 0.08 %ID/g
- Biodistribution, Olfactory bulbs ([4]; 6 hours p.i.): 0.17 ± 0.05 %ID/g
- Biodistribution, Spleen ([4]; 6 hours p.i.): 0.67 ± 0.09 %ID/g
- Biodistribution, Thyroid ([4]; 6 hours p.i.): 4.11 ± 1.15 %ID/g
- Biodistribution, Brain ([4]; 6 hours p.i.): 0.02 ± 0.00 %ID/g
- ratio of uptake olfactory bulbs to blood ([4]; rats): 6
- plateau of activity in the adrenals ([4]; rats, after 30 min to 6 h p.i.): ≈ 7.5 % ID/g
- peak activity in heart ([4]; rats, at 5 or 15 min p.i.): 3.5 % ID/g
- peak activity in kidney ([4]; rats, at 5 or 15 min p.i.): 1.8 % ID/g
- peak activity in liver ([4]; rats, at 5 or 15 min p.i.): 0.7 % ID/g
- peak activity in lung ([4]; rats, at 5 or 15 min p.i.): 7.9 % ID/g
- peak activity in spleen ([4]; rats, at 5 or 15 min p.i.): 2.7 % ID/g
- ratio of uptake olfactory bulbs versus remainder of the brain ([4]; rats, at 5 min): 2
- uptake in the thyroid ([4]; rats, at 3 h, constant till 6 h): 4%
- activity in liver, spleen, kidney, heart, and lung ([4]; rats, at 6 h): less than 0.7 % ID/g
- ratio of uptake olfactory bulbs versus remainder of the brain ([4]; rats, at 6 h): 8
- uptake in the thyroid ([4]; rats, increase from 5 min to 1 h): 4–7%
- concentration in blood ([4]; rats, throughout the time of measurement): < 0.18 % ID/g
- unchanged radiotracer in brain tissue [5]: more than 95%
- unchanged tracer in extracted activity, plasma ([5]; 15 min p.i.): 15%
- unchanged tracer in extracted activity, plasma ([5]; 1 h p.i.): 5%
- unchanged tracer in extracted activity, plasma ([5]; 3 h p.i.): 2%
- unchanged [^123I]-CLINME in extractable radioactivity, adrenals, kidney, and heart ([5]; constant over the three hours studied): more than 95%
- mean ratio ± SD (ipsilateral : contralateral) striatum uptake, SPECT (TSPO [6]; 60 min p.i.): 2.2 and 2.18 ± 0.89
- mean ratio ± SD (ipsilateral : contralateral) striatum uptake, SPECT (TSPO [6]; 120 min p.i.): 1.86 ± 0.51

Compound: CCN(C)C(=O)Cc1c(-c2ccc([125I])cc2)nc2ccc(Cl)cn12 [[^125I]-CLINME]
- radioligand binding in the lesioned striatum compared to the contralateral one (TSPO [7]): significantly increased

Compound: CCCN(CCC)C(=O)Cc1c(-c2ccc(Cl)cc2)nc2ccc(Cl)cn12 [alpidem]
- selectivity for the TPSO over the CBR (TPSO [1]): 20 fold

Compound: Ro 5-4864
- reduction of uptake of [^123I]-CLINME in the blood (TSPO [8]): not significant
- decrease of [^123I]-CLINME uptake in the heart (TSPO [8]; vs controls): 77%
- decrease of [^123I]-CLINME uptake in the kidney (TSPO [8]; vs controls): 68%
- decrease of [^123I]-CLINME uptake in the lungs (TSPO [8]; vs controls): 62%
- decrease of [^123I]-CLINME uptake in the olfactory bulbs (TSPO [8]; vs controls): nonsignificant reduction
- decrease of [^123I]-CLINME uptake in the remainder of the brain (TSPO [8]; vs controls): 23%
- increase of [^123I]-CLINME concentration in the adrenals (TSPO [8]; vs controls): 73%
